Data on 1 compound can be found in PMC5705272 (Neurobiology of aging, 2017).

For this assay, the target named is T1, PKC-λ/ι (PKC-ι) (Homo sapiens, UniProt P41743).
T1 sequence (P41743 2-596): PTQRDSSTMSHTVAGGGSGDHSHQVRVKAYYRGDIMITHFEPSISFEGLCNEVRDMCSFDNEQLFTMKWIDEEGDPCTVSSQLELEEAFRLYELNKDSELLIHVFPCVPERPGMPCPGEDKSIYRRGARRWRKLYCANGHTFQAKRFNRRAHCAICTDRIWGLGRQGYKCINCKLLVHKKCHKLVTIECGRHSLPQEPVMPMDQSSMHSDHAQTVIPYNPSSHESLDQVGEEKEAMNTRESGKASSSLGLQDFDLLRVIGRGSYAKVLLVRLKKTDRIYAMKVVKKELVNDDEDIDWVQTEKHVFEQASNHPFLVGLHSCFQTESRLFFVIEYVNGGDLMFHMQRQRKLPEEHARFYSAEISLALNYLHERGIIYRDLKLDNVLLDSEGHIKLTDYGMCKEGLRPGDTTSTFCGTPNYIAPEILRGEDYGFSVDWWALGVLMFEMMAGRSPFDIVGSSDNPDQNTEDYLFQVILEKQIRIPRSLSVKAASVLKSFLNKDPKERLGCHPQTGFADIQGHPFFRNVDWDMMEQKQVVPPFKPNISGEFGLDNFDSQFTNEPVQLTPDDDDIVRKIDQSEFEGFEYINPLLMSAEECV
It is filed as cell-based.

A word on the IC50: it is the concentration that gives 50% inhibition. Higher therefore signals lower potency. Compound `NC(=O)c1ncn([C@@H]2C[C@H](COP(=O)(O)O)[C@@H](O)[C@H]2O)c1N` [ICAPP, 1H-imidazole-4-carboxamide,5-amino]-[2,3-dihydroxy-4-[(phosphono-oxy)methyl]cyclopentane-[1R-(1a,2b,3b,4a)]] displayed an IC50 of 1 to 10 nM.
